Assay results as given in ChEMBL document CHEMBL4130634, “Discovery of Reversible DNA Methyltransferase and Lysine Methyltransferase G9a Inhibitors with Antitumoral in Vivo Efficacy” (J Med Chem, 2018).

Experiments:
[1] = target: T1, Histone-lysine N-methyltransferase EHMT2 (Homo sapiens, UniProt Q96KQ7); test: Inhibition of human G9a using biotinylated-H3K9 peptide as substrate after 1 hr in presence of SAM by TR-FRET assay
T1 sequence (Q96KQ7 whole entry): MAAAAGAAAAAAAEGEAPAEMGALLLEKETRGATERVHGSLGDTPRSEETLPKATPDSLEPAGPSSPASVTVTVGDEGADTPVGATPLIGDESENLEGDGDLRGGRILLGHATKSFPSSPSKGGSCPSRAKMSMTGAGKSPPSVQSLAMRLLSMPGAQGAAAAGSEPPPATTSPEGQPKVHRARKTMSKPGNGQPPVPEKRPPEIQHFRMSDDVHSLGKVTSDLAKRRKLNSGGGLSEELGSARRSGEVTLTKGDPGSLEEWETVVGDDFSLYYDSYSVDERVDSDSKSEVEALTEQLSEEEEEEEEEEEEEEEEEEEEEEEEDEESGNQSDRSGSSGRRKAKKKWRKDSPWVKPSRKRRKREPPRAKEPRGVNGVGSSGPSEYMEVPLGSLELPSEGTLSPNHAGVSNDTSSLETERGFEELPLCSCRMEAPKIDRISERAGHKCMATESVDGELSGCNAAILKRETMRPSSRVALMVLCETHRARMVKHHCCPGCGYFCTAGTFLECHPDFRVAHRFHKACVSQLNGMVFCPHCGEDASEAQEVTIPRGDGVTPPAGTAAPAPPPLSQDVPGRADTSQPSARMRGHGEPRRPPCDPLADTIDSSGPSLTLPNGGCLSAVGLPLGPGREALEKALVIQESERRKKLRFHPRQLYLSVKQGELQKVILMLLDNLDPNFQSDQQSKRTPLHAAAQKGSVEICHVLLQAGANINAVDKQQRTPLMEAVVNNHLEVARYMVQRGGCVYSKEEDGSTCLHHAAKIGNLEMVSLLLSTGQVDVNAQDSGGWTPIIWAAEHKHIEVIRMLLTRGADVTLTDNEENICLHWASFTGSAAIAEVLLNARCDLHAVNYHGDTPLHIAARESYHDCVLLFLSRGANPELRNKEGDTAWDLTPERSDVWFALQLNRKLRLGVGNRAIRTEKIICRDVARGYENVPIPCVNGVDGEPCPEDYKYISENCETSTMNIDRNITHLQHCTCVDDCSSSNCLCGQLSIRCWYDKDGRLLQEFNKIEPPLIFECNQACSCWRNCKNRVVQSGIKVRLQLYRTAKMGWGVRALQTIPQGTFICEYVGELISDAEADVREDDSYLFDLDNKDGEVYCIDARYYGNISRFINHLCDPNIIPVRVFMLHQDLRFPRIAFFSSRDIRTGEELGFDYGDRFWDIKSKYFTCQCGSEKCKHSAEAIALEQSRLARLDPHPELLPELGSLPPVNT

MV4-11 = test: Growth inhibition of human MV4-11 cells after 48 hrs by MTS assay; format: functional; settings: MV4-11, 48 h
[2] = target: DNA (cytosine-5)-methyltransferase 1 (Homo sapiens, UniProt P26358); test: Inhibition of human DNMT1 using polydeoxyinosine polydeoxycytosine DNA as substrate after 15 mins in presence of SAM by TR-FRET assay
[3] = Permeability of the compound at 50 uM after 18 hrs by PAMPA; format: ADME; settings: read-out: permeability
[4] = Growth inhibition of human CEMO1 cells at 1 uM after 48 hrs by MTS assay relative to control; format: functional; settings: read-out: GI
THLE-2 = test: Growth inhibition of human THLE2 cells after 72 hrs by MTS assay; format: cell-based; settings: thle-2, 72 h
[5] = Growth inhibition of human CEMO1 cells at 10 uM after 48 hrs by MTS assay relative to control; format: functional; settings: read-out: GI
OCI-Ly3 [6] = test: Growth inhibition of human OCI-LY3 cells at 1 uM after 48 hrs by MTS assay relative to control; format: functional; settings: OCI-Ly3, 48 h, read-out: GI
[7] = Growth inhibition of human LAL-CUN-2 cells at 1 uM after 48 hrs by MTS assay relative to control; format: functional; settings: read-out: GI
OCI-Ly10 [8] = test: Growth inhibition of human OCI-LY10 cells at 1 uM after 48 hrs by MTS assay relative to control; format: functional; settings: OCI-Ly10, 48 h, read-out: GI
OCI-Ly10 [9] = test: Growth inhibition of human OCI-LY10 cells after 48 hrs by MTS assay; format: functional; settings: OCI-Ly10, 48 h
[10] = Growth inhibition of human CEMO1 cells after 48 hrs by MTS assay; format: functional
OCI-Ly3 [11] = test: Growth inhibition of human OCI-LY3 cells after 48 hrs by MTS assay; format: functional; settings: OCI-Ly3, 48 h
[12] = Growth inhibition of human LAL-CUN-2 cells after 48 hrs by MTS assay; format: functional

Chain of DNA (cytosine-5)-methyltransferase 1 (P26358 whole entry): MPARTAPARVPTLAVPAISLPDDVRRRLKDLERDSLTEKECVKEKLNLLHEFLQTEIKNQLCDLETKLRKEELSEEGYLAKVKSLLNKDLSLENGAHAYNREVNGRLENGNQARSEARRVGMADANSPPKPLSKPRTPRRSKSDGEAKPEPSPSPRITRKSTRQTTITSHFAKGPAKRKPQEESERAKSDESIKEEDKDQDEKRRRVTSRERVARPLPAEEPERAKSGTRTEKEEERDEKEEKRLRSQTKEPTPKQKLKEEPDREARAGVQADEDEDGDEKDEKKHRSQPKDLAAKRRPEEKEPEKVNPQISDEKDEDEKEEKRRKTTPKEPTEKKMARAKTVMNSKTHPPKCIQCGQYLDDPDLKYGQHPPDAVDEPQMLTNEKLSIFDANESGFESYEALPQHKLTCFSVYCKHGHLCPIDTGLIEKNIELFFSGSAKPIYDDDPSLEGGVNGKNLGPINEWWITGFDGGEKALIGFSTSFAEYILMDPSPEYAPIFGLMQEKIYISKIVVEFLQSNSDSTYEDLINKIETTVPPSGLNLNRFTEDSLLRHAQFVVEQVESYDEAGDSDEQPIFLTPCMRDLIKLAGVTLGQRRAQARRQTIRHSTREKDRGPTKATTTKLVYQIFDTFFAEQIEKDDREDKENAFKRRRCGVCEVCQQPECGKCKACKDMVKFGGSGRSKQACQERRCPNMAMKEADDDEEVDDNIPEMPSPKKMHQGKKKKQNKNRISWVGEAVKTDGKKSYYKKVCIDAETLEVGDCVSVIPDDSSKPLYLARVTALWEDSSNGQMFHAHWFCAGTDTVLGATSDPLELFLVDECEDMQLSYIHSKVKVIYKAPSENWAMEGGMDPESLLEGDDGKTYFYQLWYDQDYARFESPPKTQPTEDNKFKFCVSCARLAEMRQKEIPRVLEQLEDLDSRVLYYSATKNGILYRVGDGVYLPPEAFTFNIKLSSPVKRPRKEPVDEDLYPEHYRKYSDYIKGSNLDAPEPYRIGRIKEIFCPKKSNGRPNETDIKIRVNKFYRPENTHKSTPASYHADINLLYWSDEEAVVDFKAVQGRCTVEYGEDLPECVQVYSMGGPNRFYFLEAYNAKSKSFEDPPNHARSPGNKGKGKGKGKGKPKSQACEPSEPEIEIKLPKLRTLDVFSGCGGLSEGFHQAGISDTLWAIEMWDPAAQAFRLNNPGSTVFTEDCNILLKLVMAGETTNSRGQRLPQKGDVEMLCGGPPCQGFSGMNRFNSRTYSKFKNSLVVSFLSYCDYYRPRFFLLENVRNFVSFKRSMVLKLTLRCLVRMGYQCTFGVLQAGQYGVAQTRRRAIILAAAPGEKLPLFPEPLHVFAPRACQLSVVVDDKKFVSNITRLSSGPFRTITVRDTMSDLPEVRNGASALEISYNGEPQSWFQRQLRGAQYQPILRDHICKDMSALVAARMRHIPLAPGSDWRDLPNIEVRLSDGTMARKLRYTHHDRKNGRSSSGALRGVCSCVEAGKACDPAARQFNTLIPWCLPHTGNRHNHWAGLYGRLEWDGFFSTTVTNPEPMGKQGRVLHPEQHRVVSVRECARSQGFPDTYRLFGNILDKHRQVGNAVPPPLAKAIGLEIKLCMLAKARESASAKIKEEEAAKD

Compound	IC50 [1]	IC50 [2]	Papp at 18 h, 50 µM [3]	inhibition of growth at 1 µM [4]	other results
COc1cc2c(NC3CCN(C)CC3)cc(C3CCCCC3)nc2cc1OCCCN1CCCC1	2 nM	497 nM	1.98 ×10⁻⁶ cm/s	20%	GI50 (MV4-11): > 10000 nM; LC50 (THLE-2): 34800 nM
COc1cc2c(NC3CCN(C)CC3)cc(C)nc2cc1OCCCN1CCCC1	6 nM	929 nM			inhibition of growth at 10 µM [5]: 14%
COc1cc2c(NC3CCN(C)CC3)cc(-c3ccnn3C)nc2cc1OCCCN1CCCC1	1080 nM	> 10000 nM	0.09 ×10⁻⁶ cm/s		
COc1cc2c(NC3CCN(C)CC3)cc(-c3ccc(CN(C)C)o3)nc2cc1OCCCN1CCCC1	148 nM	1270 nM			
Nc1ncn([C@H]2C[C@H](O)[C@@H](CO)O2)c(=O)n1 [DECITABINE]		30 nM			
COc1cc2c(NC3CCN(C)CC3)cc(C(F)(F)F)nc2cc1OCCCN1CCCC1	637 nM	> 10000 nM		24%	
COc1cc2c(NC3CCN(C)CC3)cc(C3=CCOCC3)nc2cc1OCCCN1CCCC1	12 nM	957 nM	0.37 ×10⁻⁶ cm/s	8%	inhibition of growth at 1 µM (OCI-Ly3 [6]): 6%; inhibition of growth at 1 µM [7]: 0%; inhibition of growth at 1 µM (OCI-Ly10 [8]): 16%
COc1cc2c(NC3CCN(C)CC3)cc(-c3ccc(C)[nH]3)nc2cc1OCCCN1CCCC1	0.5 nM	232 nM			inhibition of growth at 1 µM [7]: 12%; LC50 (THLE-2): 7680 nM; GI50 (OCI-Ly10 [9]): 915 nM; GI50 [10]: 1650 nM; GI50 (OCI-Ly3 [11]): 896 nM
COc1cc2c(NC3CCN(C)CC3)cc(C3=CCCCC3)nc2cc1OCCCN1CCCC1	6 nM	494 nM	2.09 ×10⁻⁶ cm/s		GI50 [12]: 4290 nM; LC50 (THLE-2): 7580 nM; GI50 [10]: 1180 nM
COc1cc2c(NC3CCN(C)CC3)cc(-c3ccc(CO)o3)nc2cc1OCCCN1CCCC1	15 nM	759 nM	0.05 ×10⁻⁶ cm/s	0%	inhibition of growth at 1 µM (OCI-Ly3 [6]): 26%; inhibition of growth at 1 µM [7]: 19%; inhibition of growth at 1 µM (OCI-Ly10 [8]): 1%
COc1cc2c(NC3CCN(C)CC3)cc(-c3ccccc3C)nc2cc1OCCCN1CCCC1	52 nM	582 nM			
COc1cc2c(NC3CCN(C)CC3)cc(-c3cc4ccccc4o3)nc2cc1OCCCN1CCCC1	3140 nM	1070 nM			
COc1cc2c(NC3CCN(C)CC3)cc(-c3ccc(C)s3)nc2cc1OCCCN1CCCC1	43 nM	230 nM	2.91 ×10⁻⁶ cm/s		GI50 (MV4-11): 3100 nM; inhibition of growth at 1 µM (OCI-Ly3 [6]): 21%; LC50 (THLE-2): 4060 nM; GI50 [10]: 555 nM; inhibition of growth at 1 µM (OCI-Ly10 [8]): 42%
COc1cc2c(NC3CCN(C)CC3)cc(N3CCN(C)CC3)nc2cc1OCCCN1CCCC1	42 nM	945 nM			inhibition of growth at 10 µM [5]: 14%
COc1cc2c(NC3CCN(C)CC3)cc(-c3cccnc3)nc2cc1OCCCN1CCCC1	40 nM	1410 nM	0.22 ×10⁻⁶ cm/s	0%	inhibition of growth at 1 µM (OCI-Ly3 [6]): 12%; inhibition of growth at 1 µM [7]: 16%; inhibition of growth at 1 µM (OCI-Ly10 [8]): 17%
COc1cc2c(NC3CCN(C)CC3)cc(-c3ccccc3)nc2cc1OCCCN1CCCC1	15 nM	1050 nM	1.69 ×10⁻⁶ cm/s		GI50 (MV4-11): 2600 nM; inhibition of growth at 1 µM [7]: 7%; LC50 (THLE-2): 5620 nM; GI50 (OCI-Ly10 [9]): 420 nM; GI50 [10]: 658 nM; GI50 (OCI-Ly3 [11]): 717 nM
CCc1ccc(-c2cc(NC3CCN(C4CC4)CC3)c3cc(OC)c(OCCCN4CCCC4)cc3n2)o1	24 nM	274 nM	5.56 ×10⁻⁶ cm/s		GI50 (MV4-11): 3510 nM; LC50 (THLE-2): 703 nM; GI50 (OCI-Ly10 [9]): 236 nM; GI50 [10]: 917 nM; GI50 (OCI-Ly3 [11]): 1560 nM
CCc1ccc(-c2cc(NC3CCN(C(C)C)CC3)c3cc(OC)c(OCCCN4CCCC4)cc3n2)o1	3 nM	284 nM	3.83 ×10⁻⁶ cm/s		GI50 (MV4-11): 971 nM; LC50 (THLE-2): 1720 nM; GI50 [10]: 441 nM
COc1cc2c(NC3CCN(C)CC3)cc(-c3ccc(C#N)o3)nc2cc1OCCCN1CCCC1	264 nM	1600 nM			
CCNCc1ccc(-c2cc(NC3CCN(C)CC3)c3cc(OC)c(OCCCN4CCCC4)cc3n2)o1	48 nM	618 nM	0.13 ×10⁻⁶ cm/s	0%	inhibition of growth at 1 µM (OCI-Ly3 [6]): 0%; inhibition of growth at 1 µM [7]: 3%; inhibition of growth at 1 µM (OCI-Ly10 [8]): 0%
COc1cc2c(NC3CCN(C)CC3)cc(C3CCC(C)O3)nc2cc1OCCCN1CCCC1 (configuration not stated)	27 nM	1370 nM			
COc1cc(NC2CCN(C)CC2)c2cc(OC)c(OCCCN3CCCC3)cc2n1	136 nM	2290 nM		1%	
COc1cc2c(NC3CCN(C)CC3)cc(-c3ccn(C)n3)nc2cc1OCCCN1CCCC1	44 nM	969 nM		10%	inhibition of growth at 1 µM (OCI-Ly3 [6]): 16%; inhibition of growth at 1 µM [7]: 16%; inhibition of growth at 1 µM (OCI-Ly10 [8]): 0%
COc1cc2c(NC3CCN(C)CC3)cc(-c3ccc(-c4ccccc4)o3)nc2cc1OCCCN1CCCC1	2720 nM	1050 nM			
Nc1ncn([C@@H]2O[C@H](CO)[C@@H](O)[C@H]2O)c(=O)n1 [AZACITIDINE]		300 nM			
COc1cc2c(NC3CCNCC3)cc(-c3ccc(C)o3)nc2cc1OCCCN1CCCC1	6 nM	137 nM	0.2 ×10⁻⁶ cm/s		GI50 [12]: > 5000 nM; LC50 (THLE-2): 8850 nM; GI50 (OCI-Ly10 [9]): > 4000 nM; GI50 [10]: 1980 nM; GI50 (OCI-Ly3 [11]): 1270 nM
COc1cc2c(NC3CCN(C)CC3)cc(-c3cc[nH]c(=O)c3)nc2cc1OCCCN1CCCC1	142 nM	1250 nM			
COc1cc2c(NC3CCN(C)CC3)cc(C3CCOCC3)nc2cc1OCCCN1CCCC1	17 nM	4420 nM	0.22 ×10⁻⁶ cm/s	20%	inhibition of growth at 1 µM (OCI-Ly3 [6]): 0%; inhibition of growth at 1 µM [7]: 6%; inhibition of growth at 1 µM (OCI-Ly10 [8]): 3%
COc1cc2c(NC3CCN(C)CC3)nc(-c3ccc(C)o3)nc2cc1OCCCN1CCCC1	336 nM	2250 nM			
